target: T1, PDE4B2 (Homo sapiens, UniProt Q07343); assay: Inhibition of PDE4 activity, [3H]cAMP SPA enzyme assay with recombinant PDE4B2; type: biochemical; conditions: recombinant PDE4B2 (GB no. M97515) expressed in SF21 insect cells; 0.5 μM cAMP; 15 min at 37° C.; read-out: PDE4 Inhibition [measured as −logIC50 (mol/l)] (converted)
T1 construct: made in house; host or cells: SF21 insect cells (baculovirus prepared in SF9 cells, pCR-Bac vector)
Method: Method for Measuring Inhibition of PDE4 Activities
The PDE4B2 (GB no. M97515) was a gift of Prof. M. Conti (Stanford University, USA). It was amplified from the original plasmid (pCMV5) via PCR with primers Rb9 (5′-[…]-3′) and Rb10 (5′-[…]-3′) and cloned into the pCR-Bac vector (Invitrogen, Groningen, NL).
The recombinant baculovirus was prepared by means of homologous recombination in SF9 insect cells. The expression plasmids were co-transfected with Bac-N-Blue (Invitrogen, Groningen, NL) or BaculoGold DNA (Pharmingen, Hamburg) using a standard protocol (Pharmingen, Hamburg). Wt virus-free recombinant virus supernatants were selected using plaque assay methods. After that, high-titre virus supernatants were prepared by amplifying 3 times. PDE4B2 was expressed in SF21 cells by infecting 2×10^6 cells/ml with an MOI (multiplicity of infection) between 1 and 10 in serum-free SF900 medium (Life Technologies, Paisley, UK). The cells were cultured at 28° C. for 48-72 hours, after which they were pelleted for 5-10 min at 1000 g and 4° C.
The SF21 insect cells were resuspended, at a concentration of approx. 10^7 cells/ml, in ice-cold (4° C.) homogenization buffer (20 mM Tris, pH 8.2, containing the following additions: 140 mM NaCl, 3.8 mM KCl, 1 mM EGTA, 1 mM MgCl2, 10 mM p-mercaptoethanol, 2 mM benzamidine, 0.4 mM Pefablock, 10 μM leupeptin, 10 μM pepstatin A, 5 μM trypsin inhibitor) and disrupted by ultrasonication. The homogenate was then centrifuged for 10 min at 1000×g and the supernatant was stored at 80° C. until subsequent use (see below). The protein content was determined by the Bradford method (BioRad, Munich) using BSA as the standard.
PDE4B2 activity was inhibited by the said compounds in a modified SPA (scintillation proximity assay) test, supplied by Amersham Biosciences (see procedural instructions “phosphodiesterase [3H]cAMP SPA enzyme assay, code TRKQ 7090”), carried out in 96-well microtitre plates (MTP's). The test volume is 100 μl and contains 20 mM Tris buffer (pH 7.4), 0.1 mg of BSA (bovine serum albumin)/ml, 5 mM Mg^2+, 0.5 μM cAMP (including about 50,000 cpm of [3H]cAMP), 1 μl of the respective substance dilution in DMSO and sufficient recombinant PDE (1000×g supernatant, see above) to ensure that 10-20% of the cAMP is converted under the said experimental conditions. […] After a preincubation of 5 min at 37° C., the reaction is started by adding the substrate (cAMP) and the assays are incubated for a further 15 min; after that, they are stopped by adding SPA beads (50 μl). In accordance with the manufacturer's instructions, the SPA beads had previously been resuspended in water, but were then diluted 1:3 (v/v) in water; the diluted solution also contains 3 mM IBMX to ensure a complete PDE activity stop. After the beads have been sedimented (>30 min), the MTP's are analyzed in commercially available […] detection devices. The corresponding IC50 values of the compounds for the inhibition of PDE activities are determined from the concentration-effect curves by means of non-linear regression.
The inhibitory values determined for the compounds according to the invention follow from the following Table 1, in which the numbers of the compounds correspond to the numbers of the examples.

T1 sequence (Q07343 1-564 isoform Q07343-2): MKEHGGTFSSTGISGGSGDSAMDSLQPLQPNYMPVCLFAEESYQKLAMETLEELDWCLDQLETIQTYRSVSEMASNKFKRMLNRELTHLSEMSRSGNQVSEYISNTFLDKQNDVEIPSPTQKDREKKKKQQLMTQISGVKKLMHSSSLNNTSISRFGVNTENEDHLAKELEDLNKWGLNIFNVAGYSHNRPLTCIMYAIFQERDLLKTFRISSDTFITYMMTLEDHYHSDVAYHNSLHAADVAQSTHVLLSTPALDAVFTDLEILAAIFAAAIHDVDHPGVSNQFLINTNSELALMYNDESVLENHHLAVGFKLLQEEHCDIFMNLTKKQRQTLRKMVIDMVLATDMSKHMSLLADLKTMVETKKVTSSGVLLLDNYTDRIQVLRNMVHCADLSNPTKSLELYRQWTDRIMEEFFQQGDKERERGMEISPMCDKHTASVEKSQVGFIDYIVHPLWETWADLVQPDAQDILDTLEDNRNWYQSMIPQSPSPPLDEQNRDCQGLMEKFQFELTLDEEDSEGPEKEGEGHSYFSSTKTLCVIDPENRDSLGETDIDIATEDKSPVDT

Compound | IC50
CCOc1cc2c(cc1OC)C(c1ccc(C(=O)N(C(C)C)C(C)C)cc1)=N[C@@H]1CCOC[C@H]21 [Compound 1, 4-((4aR,10aR)-6-Ethoxy-7-methoxy-1,4,4a,10a-tetrahydro-2H-3-oxa-10-aza-phenanthren-9-yl)-N,N-diisopropyl-benzamide] | 2.75 nM
CCOc1cc2c(cc1OC)C(c1ccc(C(=O)OC)cc1)=N[C@@H]1CCOC[C@H]21 [Compound 2, 4-((4aR,10aR)-6-Ethoxy-7-methoxy-1,4,4a,10a-tetrahydro-2H-3-oxa-10-aza-phenanthren-9-yl)-benzoic acid methyl ester] | 20 nM
CCOc1cc2c(cc1OC)C(c1ccc(C(=O)O)cc1)=N[C@@H]1CCOC[C@H]21 [Compound 3, 4-((4aR,10aR)-6-Ethoxy-7-methoxy-1,4,4a,10a-tetrahydro-2H-3-oxa-10-aza-phenanthren-9-yl)-benzoic acid] | 33.9 nM

Results, then the compound that gave them:

IC50 | Compound
39.8 nM | CCOc1cc2c(cc1OC)C(c1ccc(C(=O)N3CCOCC3)cc1)=N[C@@H]1CCOC[C@H]21 [Compound 4, 1-[4((4aR,10aR)-6-Ethoxy-7-methoxy-1,4,4a,10a-tetrahydro-2H-3oxa-10-aza-phenanthren-9-yl)-phenyl]-1-morpholin-4-yl-methanone]
57.5 nM | CCOc1cc2c(cc1OC)C(c1ccc(C(=O)N(C)C)cc1)=N[C@@H]1CCOC[C@H]21 [Compound 5, 1-[4-((4aR,10aR)-6-Ethoxy-7-methoxy-1,4,4a,10a-tetrahydro-2H-3-oxa-10-aza-phenanthren-9-yl)]-N,N-dimethyl-benzamide]
20.4 nM | CCOc1cc2c(cc1OC)C(c1ccc(C(=O)N3CCN(C)CC3)cc1)=N[C@@H]1CCOC[C@H]21 [Compound 6, 1-[4-((4aR,10aR)-6-Ethoxy-7-methoxy-1,4,4a,10a-tetrahydro-2H-3oxa-10-aza-phenanthren-9-yl)-phenyl-]1-(4-methyl-piperazin-1-yl)-methanone]
